In patent US10780074B2, “Compounds and uses thereof” (Sunovion Pharmaceuticals Inc., priority 2017, dated 2020):
Structures can show the parent of a compound that is named as a salt.

Test system: behaviors of compound-treated mice
Assay: Neuropharmacological Assay (SmartCube)
Format: in vivo
Details: for minimal effective dose: Mus musculus, ip, 0.25 h, dose having 50% or more total activity in SmartCube, i.p., read-out: MED (minimal effective dose); for AD: ADHD (probability that activity matches class) / AG: analgesic (probability that activity matches class) / AX: anxiolytic (probability that activity matches class) / CE: cognitive enhancer (probability that activity matches class) / DP: anti-depressant (probability that activity matches class) / MS: mood stabilizer (probability that activity matches class) / PS: anti-psychotic (probability that activity matches class) / SD: sedative hypnotic (probability that activity matches class) / UN: uncharacterized CNS activity (probability that activity matches class): i.p. 15 min before behavioral test, most efficacious dose(s) of 3 doses
Procedure, shortened: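 Mice dosed i.p. 15 min before testing, with compound in N-methyl-2-pyrrolidone/PEG/propylene glycol, were video-recorded and algorithmically compared with reference-drug behavioral signatures. This gave class-match probabilities (antidepressant, anxiolytic, etc.) at the most efficacious of 3 doses. MED was defined as the dose with ≥50% total activity, usually tested across 0.3–30 mpk.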

Row | SMILES | minimal effective dose [mg/kg] | AD: ADHD (probability that activity matches class) | AG: analgesic (probability that activity matches class) | AX: anxiolytic (probability that activity matches class) | CE: cognitive enhancer (probability that activity matches class) | DP: anti-depressant (probability that activity matches class) | MS: mood stabilizer (probability that activity matches class) | PS: anti-psychotic (probability that activity matches class) | SD: sedative hypnotic (probability that activity matches class) | UN: uncharacterized CNS activity (probability that activity matches class)
1 | NC[C@@H]1OCCc2c(-c3ccon3)cccc21 (single isomer, unassigned) [Compound 88, hydrochloride salt] | 10 to 30 | + (LOQ ≤ + <5%) | + (LOQ ≤ + <5%) | ++ (5% ≤ ++ <25%) | + (LOQ ≤ + <5%) | ++ (5% ≤ ++ <25%) | + (LOQ ≤ + <5%) | + (LOQ ≤ + <5%) | + (LOQ ≤ + <5%) | + (LOQ ≤ + <5%)
2 | NC[C@H]1OCCc2c(-c3ccon3)cccc21 (single isomer, unassigned) [Compound 89, hydrochloride salt] | ≤ 3 | ++ (5% ≤ ++ <25%) | ++ (5% ≤ ++ <25%) | +++ (25% ≤ +++ <50%) | + (LOQ ≤ + <5%) | ++++ (50% ≤ ++++) | + (LOQ ≤ + <5%) | ++ (5% ≤ ++ <25%) | + (LOQ ≤ + <5%) | ++ (5% ≤ ++ <25%)
3 | CNC[C@@H]1OCCc2c(-c3ccon3)cccc21 (single isomer, unassigned) [Compound 90, hydrochloride salt] | 10 to 30 | + (LOQ ≤ + <5%) | + (LOQ ≤ + <5%) | ++ (5% ≤ ++ <25%) | + (LOQ ≤ + <5%) | + (LOQ ≤ + <5%) | + (LOQ ≤ + <5%) | + (LOQ ≤ + <5%) | + (LOQ ≤ + <5%) | + (LOQ ≤ + <5%)
4 | CNC[C@H]1OCCc2c(-c3ccon3)cccc21 (single isomer, unassigned) [Compound 91, hydrochloride salt] | ≤ 3 | ++++ (50% ≤ ++++) | + (LOQ ≤ + <5%) | ++ (5% ≤ ++ <25%) | + (LOQ ≤ + <5%) | ++++ (50% ≤ ++++) | + (LOQ ≤ + <5%) | + (LOQ ≤ + <5%) | ++ (5% ≤ ++ <25%) | +++ (25% ≤ +++ <50%)
5 | NC[C@@H]1OCCc2c(-c3ccno3)cccc21 (single isomer, unassigned) [Compound 92, hydrochloride salt] | ≤ 3 | ++ (5% ≤ ++ <25%) | + (LOQ ≤ + <5%) | ++ (5% ≤ ++ <25%) | + (LOQ ≤ + <5%) | ++ (5% ≤ ++ <25%) | + (LOQ ≤ + <5%) | + (LOQ ≤ + <5%) | ++ (5% ≤ ++ <25%) | +++ (25% ≤ +++ <50%)
6 | NC[C@H]1OCCc2c(-c3ccno3)cccc21 (single isomer, unassigned) [Compound 93, hydrochloride salt] | 10 to 30 | + (LOQ ≤ + <5%) | + (LOQ ≤ + <5%) | + (LOQ ≤ + <5%) | + (LOQ ≤ + <5%) | + (LOQ ≤ + <5%) | + (LOQ ≤ + <5%) | + (LOQ ≤ + <5%) | + (LOQ ≤ + <5%) | + (LOQ ≤ + <5%)
7 | CNC[C@H]1OCCc2c(-c3cnco3)cccc21 (single isomer, unassigned) [Compound 97, hydrochloride salt] | ≤ 3 | + (LOQ ≤ + <5%) | ++ (5% ≤ ++ <25%) | ++ (5% ≤ ++ <25%) | + (LOQ ≤ + <5%) | ++ (5% ≤ ++ <25%) | + (LOQ ≤ + <5%) | ++ (5% ≤ ++ <25%) | ++++ (50% ≤ ++++) | ++ (5% ≤ ++ <25%)
8 | NC[C@@H]1OCCc2c(-c3cnco3)cccc21 (single isomer, unassigned) [Compound 98, hydrochloride salt] | ≤ 3 | ++ (5% ≤ ++ <25%) | + (LOQ ≤ + <5%) | ++ (5% ≤ ++ <25%) | + (LOQ ≤ + <5%) | ++++ (50% ≤ ++++) | + (LOQ ≤ + <5%) | + (LOQ ≤ + <5%) | + (LOQ ≤ + <5%) | + (LOQ ≤ + <5%)
9 | NC[C@H]1OCCc2c(-c3cnco3)cccc21 (single isomer, unassigned) [Compound 99, hydrochloride salt] | ≤ 3 | + (LOQ ≤ + <5%) | ++ (5% ≤ ++ <25%) | ++ (5% ≤ ++ <25%) | ++ (5% ≤ ++ <25%) | + (LOQ ≤ + <5%) | + (LOQ ≤ + <5%) | + (LOQ ≤ + <5%) | ++ (5% ≤ ++ <25%) | +++ (25% ≤ +++ <50%)
10 | NC[C@@H]1OCCc2c(-c3ncc[nH]3)cccc21 (single isomer, unassigned) [Compound 108, hydrochloride salt] | 10 to 30 | + (LOQ ≤ + <5%) | ++ (5% ≤ ++ <25%) | ++ (5% ≤ ++ <25%) | + (LOQ ≤ + <5%) | ++ (5% ≤ ++ <25%) | + (LOQ ≤ + <5%) | ++ (5% ≤ ++ <25%) | ++ (5% ≤ ++ <25%) | +++ (25% ≤ +++ <50%)
